Test results published in patent US20230123334A1, “AMINO LIPID COMPOUND, PREPARATION METHOD THEREFOR, AND APPLICATION THEREOF” (SHENZHEN SHENXIN BIOTECHNOLOGY CO., LTD., priority 2020, published 2023).

Assays:
Assay type in all cases: cell-based
[1] = system: MCF7 cells; test: Transfection of MCF7 cell line, DNA vectors; set-up: concentration or dose not given beside the values; settings: plasmid DNA, GFP cells / total cells
How it was run: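 MCF7 cells in DMEM with fetal bovine serum were transfected in 96-well format. Read-out was the percentage of GFP-fluorescent cells among total cells counted by Hoechst nuclear stain. Lipofectamine2000 served as positive control.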

[2] = system: Hela cells; test: Transfection of Hela cell line, mRNA vectors; settings: 50 ng EGFP mRNA per well
How it was run: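 HeLa cells in DMEM with 10% FBS transfected with 50 ng EGFP mRNA per well. Readout is percentage of GFP-positive cells among total cells counted by Hoechst nuclear stain; Lipofectamine2000 served as positive control.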

[3] = system: MCF7 cells; test: Transfection of MCF7 cell line, mRNA vectors; settings: 50 ng EGFP mRNA per well
How it was run: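 MCF7 cells in DMEM with fetal bovine serum were transfected with 50 ng EGFP mRNA per well. Read-out was the percentage of GFP-positive cells among total Hoechst-stained nuclei, with Lipofectamine2000 as positive control.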

[4] = system: cardiomyocytes; test: Screening as mRNA vectors in cardiomyocytes; settings: 50 ng EGFP mRNA per well
How it was run: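 Cardiomyocytes differentiated from hESC, in DMEM with 10% FBS, were transfected with 50 ng EGFP mRNA per well. The read-out was GFP-positive cells as a percentage of Hoechst-stained nuclei, with Lipofectamine Stem as positive control.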

[5] = system: embryonic stem cells (hESC2); test: Screening as DNA vectors in embryonic stem cells, flow cytometry; settings: 75 ng plasmid DNA, 48 hours after transfection, flow cytometer
How it was run: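 hESC2 cells in mTeSR1 on matrigel transfected with 75 ng pSin-EGFP-IRES-Puro complexed with amino lipid/DOPE liposomes formed in sodium acetate pH 5.6; 37 °C, 5% CO2. After 48 h, GFP-positive cells counted by flow cytometry (≥2000 cells), efficiency also expressed relative to Lipofectamine Stem.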

[6] = system: HEK293 cells; test: Preliminary screening as mRNA vectors, EGFP mRNA transfection of HEK293 cells; settings: HEK293 cells, 96-well plates, EGFP mRNA 50 ng per well; percentage of GFP fluorescent cells relative to total number of cells (Hoechst)
How it was run: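 HEK293 cells in DMEM plus 10% FBS transfected in 96-well format with 50 ng EGFP mRNA per well; Lipofectamine2000 served as positive control. Read-out is the percentage of GFP-fluorescent cells among total cells, counted by Hoechst nuclear stain.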

[7] = system: embryonic stem cells (hESC2); test: Screening as mRNA vectors in embryonic stem cells; settings: 50 ng EGFP mRNA per well
How it was run: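 EGFP mRNA (50 ng per well) transfected into hESC2 cells grown in mTeSR1; Lipofectamine Stem served as positive control. Read-out: GFP-fluorescent cells as percentage of total cells.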

[8] = system: HEK293 cells; test: Preliminary screening as DNA vectors, GFP transfection of HEK293 cells; settings: HEK293 cells; lipid/DOPE liposome with 75 ng plasmid DNA (psin-EGFP-IRES-Puro); number of cells expressing GFP divided by total number of nuclei (Hoechst)
How it was run: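 HEK293 cells in DMEM/10% FBS transfected with 75 ng EGFP plasmid per well complexed with amino lipid/DOPE liposomes in pH 5.6 sodium acetate. Hoechst nuclear stain added 20-24 h post-transfection, then cells cultured another 20-24 h. Confocal imaging gives GFP-positive cells as % of total nuclei.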

[9] = system: Hela cells; test: Transfection of Hela cell line, DNA vectors; settings: 75 ng plasmid DNA, GFP cells / total cells
How it was run: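 Amino lipid/DOPE liposomes in sodium acetate pH 5.6 were complexed with 75 ng psin-EGFP-IRES-Puro plasmid for 30 min at room temperature, then mixed with 3-5×10^4 Hela cells in DMEM/10% FBS at 37° C. Hoechst stain after 20-24 h, imaging after a further 20-24 h. Efficiency = GFP-positive cells / total nuclei.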

[10] = system: cardiomyocytes; test: Screening as DNA vectors in cardiomyocytes; set-up: concentration or dose not given beside the values; settings: method as Example 4
How it was run: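 hESC-derived cardiomyocytes in DMEM with 10% FBS were transfected with a GFP DNA vector; Lipofectamine Stem served as positive control. Read-out: percentage of GFP-positive cells relative to total cells counted by Hoechst nuclear stain.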

Compound	Absolute DNA transfection efficiency in MCF7 cells [1]	Absolute mRNA transfection efficiency in Hela cells [2]	Absolute mRNA transfection efficiency in MCF7 cells [3]	Absolute mRNA transfection efficiency in cardiomyocytes [4]	Absolute DNA transfection efficiency in embryonic stem cells [5]	Absolute mRNA transfection efficiency in HEK293 cells [6]	Absolute mRNA transfection efficiency in embryonic stem cells [7]	Absolute DNA transfection efficiency in HEK293 cells [8]	Absolute DNA transfection efficiency in Hela cells [9]	Absolute DNA transfection efficiency in cardiomyocytes [10]
CCCCCCCCCCCCCCCSc1nc(NCCN2CCN(C)CC2)nc(SCCCCCCCCC)n1 [Compound S9S15D5]	23.0%	4.4%	27.0%	1.9%	6.2%	41.3%	33.4%	8.9%	4.4%	12.8%
CCCCCCCCCCCCCCSc1nc(NCCCN2CCOCC2)nc(SCCCCCCCCC)n1 [Compound S9S14D8]	6.4%	10.8%	14.8%	1.0%	0.7%	11.6%	0.3%	21.0%	10.8%	6.1%
CCCCCCCCCCCCSc1nc(NCC2CCN(C)CC2)nc(SCCCCCCCCC)n1 [Compound S9S12D10]	46.0%	8.9%	40.9%	3.8%	14.0%	82.9%	25.4%	17.9%	8.9%	2.9%
CCCCCCCCCCCCCCCSc1nc(NCC2CCN(C)CC2)nc(SCCCCCCCCC)n1 [Compound S9S15D10]	58.8%	28.7%	49.4%	4.3%	16.8%	94.8%	23.0%	56.1%	28.7%	24.8%
CCCCCCCCCCCCCCSc1nc(NCC2CCN(C)CC2)nc(SCCCCCCCCC)n1 [Compound S9S14D10]	50.5%	7.5%	50.3%	34.4%	0.7%	91.0%	23.1%	14.5%	7.2%	7.6%
CCCCCCCCCCCCSc1nc(NCCCN(C)C)nc(SCCCCCCCCC)n1 [Compound S9S12D6]	34.2%	10.9%	50.4%	9.5%	10.5%	61.6%	9.3%	20.2%	10.9%	3.3%
CCCCCCCCCCCCCCCSc1nc(NCCN2CCCC2)nc(SCCCCCCCCC)n1 [Compound S9S15D3]	1.4%	1.4%	1.1%	6.6%	1.8%	2.5%	9.2%	2.5%	1.4%	0.3%
CCCCCCCCCCCCNc1nc(NCCCN2CCOCC2)nc(SCCCCCCCCC)n1 [Compound S9N12D8]	6.2%	6.8%	0.7%	2.1%	1.1%		11.1%		6.8%	1.5%
CCCCCCCCCCCCNc1nc(NCCCN2CCN(C)CC2)nc(SCCCCCCCCC)n1 [Compound S9N12D9]	20.0%	14.4%	16.4%	32.0%	2.7%		7.6%		14.4%	0.0%
CCCCCCCCCCCSc1nc(NCCN2CCN(C)CC2)nc(SCCCCCCCC)n1 [Compound S8S11D5]	48.3%	5.9%	30.6%	2.7%	2.4%		21.1%		5.9%	0.5%
CCCCCCCCCCCCSc1nc(NCC2CCN(C)CC2)nc(SCCCCCCCC)n1 [Compound S8S12D10]	37.7%	11.7%	50.2%	25.6%	2.6%		24.6%		11.7%	1.0%
CCCCCCCCCCCCNc1nc(NCCN2CCN(C)CC2)nc(SCCCCCCCCC)n1 [Compound S9N12D5]	13.7%	24.1%	16.6%	25.5%	2.5%		10.5%		24.1%	4.0%
CCCCCCCCCCCSc1nc(NCCCCCCCCC)nc(NCCCN2CCOCC2)n1 [Compound S11N9D8]	0.9%	4.3%	13.1%	2.6%	0.8%		3.2%		4.3%	1.7%
CCCCCCCCCCCNc1nc(NCCCN2CCOCC2)nc(SCCCCCCCC)n1 [Compound S8N11D8]	4.4%	6.8%	0.1%	1.9%	0.7%		1.0%		6.8%	2.1%
